Data: patent US8815853B2, “Pyrimidinone derivatives, preparation thereof and pharmaceutical use thereof” (Sanofi, priority 2010, dated 2014)

Experiments:
Vps34 = molecular target: T1, Vps34 (Homo sapiens, UniProt Q8NEB9); assay: Phosphorylation of phosphatidylinositol (PI) with Vps34 in vitro, ADP detected by TR-FRET (HTRF Transcreener ADP kit); assay type: biochemical; details: 10 μM ATP, 55 μg/mL PI, about 3 nM of Vps34, 1 hour at room temperature; absolute CI50, average of 2 independent experiments; read-out: VPS34 CI 50
T1 construct: purchased Invitrogen PV5126
Procedure: Study of the Phosphorylation of Phosphatidylinositol (PI) with Vps34 In Vitro
This test is based on the detection of the ADP produced during phosphorylation of PI with Bps34 in the presence of ATP. ADP is detected by TR-FRET (Time resolved—Fluorescence Resonance Energy transfer) by using the Transcreener kit marketed by Cisbio (HTRF® Transcreener® ADP, reference 62ADPPEB).
The reaction is started with 10 μL of an ATP solution (Sigma A7699) in a buffer A and lasts for 1 hour at room temperature. […] The enzyme amount is adapted to each batch so as to form about 2 μM of ADP during the reaction. In parallel, an ADP and ATP range giving the possibility of calibration results is prepared according to the indications of the kit. Controls not containing any enzyme (negative control) or not containing any molecules (positive control) are also prepared in parallel. […] Fluorescence emission is detected on a Rubystar apparatus at 620 and 665 nm. The signal ratio is calculated by dividing the 665 nm signal by the 620 nm signal and then by multiplying by 10,000. The signal ratios are converted into an ADP concentration by using the calibration range and according to the instructions of the kit. The percentages of inhibition of the molecules are calculated relatively to the positive controls according to the formula (1−signal ratio of the molecule/signal ratio of the positive control)×100. […] With 2 independent experiments it is possible to calculate the average of the CI50s.

T1 sequence (Q8NEB9 whole entry): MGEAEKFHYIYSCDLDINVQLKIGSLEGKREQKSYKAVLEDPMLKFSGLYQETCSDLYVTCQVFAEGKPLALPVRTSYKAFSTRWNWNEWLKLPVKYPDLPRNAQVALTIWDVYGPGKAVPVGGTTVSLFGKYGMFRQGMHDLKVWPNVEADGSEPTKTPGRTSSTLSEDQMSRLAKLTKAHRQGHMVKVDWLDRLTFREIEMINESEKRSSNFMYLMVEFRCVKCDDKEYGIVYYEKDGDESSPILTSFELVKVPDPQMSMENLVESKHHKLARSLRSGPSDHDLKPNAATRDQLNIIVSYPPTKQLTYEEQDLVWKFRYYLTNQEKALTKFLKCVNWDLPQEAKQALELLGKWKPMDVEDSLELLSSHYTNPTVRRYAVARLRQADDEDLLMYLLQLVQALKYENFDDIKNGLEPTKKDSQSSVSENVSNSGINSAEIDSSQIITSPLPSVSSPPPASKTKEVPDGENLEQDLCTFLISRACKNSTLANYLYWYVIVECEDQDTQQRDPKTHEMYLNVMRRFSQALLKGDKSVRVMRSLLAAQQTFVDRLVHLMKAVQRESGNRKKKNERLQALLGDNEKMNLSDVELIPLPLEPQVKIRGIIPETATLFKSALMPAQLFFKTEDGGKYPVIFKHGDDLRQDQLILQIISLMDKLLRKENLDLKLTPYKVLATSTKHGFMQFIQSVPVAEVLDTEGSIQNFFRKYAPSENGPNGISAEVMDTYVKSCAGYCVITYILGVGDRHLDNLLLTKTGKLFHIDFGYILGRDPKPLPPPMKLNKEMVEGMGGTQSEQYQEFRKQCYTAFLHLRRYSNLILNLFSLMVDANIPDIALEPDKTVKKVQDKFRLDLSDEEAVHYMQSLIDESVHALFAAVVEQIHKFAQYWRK

| Structure (SMILES) | IC50 (Vps34) [nM] | melting point [°C] |
| --- | --- | --- |
| CCC(CC)CN1c2nc(N3CCOCC3)cc(=O)n2C[C@@]1(C)C(F)(F)F [Example 1a, (2S)-1-(2-Ethylbutyl)-2-methyl-7-(morpholin-4-yl)-2-(trifluoromethyl)-2,3-dihydroimidazo[1,2-a]pyrimidin-5(1H)-one] | < 10 | – |
| CCC(CC)CN1c2nc(N3CCOCC3)cc(=O)n2CC[C@H]1C(F)(F)F [Example 1b, (8S)-9-(2-Ethylbutyl)-2-(morpholin-4-yl)-8-(trifluoromethyl)-6,7,8,9-tetrahydro-4H-pyrimido[1,2-a]pyrimidin-4-one] | < 10 | – |
| C[C@@]1(C(F)(F)F)Cn2c(nc(N3CCOCC3)cc2=O)N1C1CC1 [Example 2a, (2S)-1-Cyclopropyl-2-methyl-7-(morpholin-4-yl)-2-(trifluoromethyl)-2,3-dihydroimidazo[1,2-a]pyrimidin-5(1H)-one] | < 10 | – |
| O=c1cc(N2CCOCC2)nc2n1CC[C@@H](C(F)(F)F)N2CC1CC1 [Example 2b, (8S)-9-(Cyclopropylmethyl)-2-(morpholin-4-yl)-8-(trifluoromethyl)-6,7,8,9-tetrahydro-4H-pyrimido[1,2-a]pyrimidin-4-one] | < 10 | – |
| C[C@@]1(C(F)(F)F)Cn2c(nc(N3CCOCC3)cc2=O)N1C1CCCC1 [Example 3a, (2S)-1-Cyclopentyl-2-methyl-7-(morpholin-4-yl)-2-(trifluoromethyl)-2,3-dihydroimidazo[1,2-a]pyrimidin-5(1H)-one] | < 10 | – |
| O=c1cc(N2CCOCC2)nc2n1CC[C@@H](C(F)(F)F)N2C1CCCC1 [Example 3b, (8S)-9-Cyclopentyl-2-(morpholin-4-yl)-8-(trifluoromethyl)-6,7,8,9-tetrahydro-4H-pyrimido[1,2-a]pyrimidin-4-one] | < 10 | – |
| CC(C)OCCN1c2nc(N3CCOCC3)cc(=O)n2C[C@@]1(C)C(F)(F)F [Example 4a, (S)-1-(2-Isopropoxy-ethyl)-2-methyl-7-(morpholin-4-yl)-2-(trifluoromethyl)-2,3-dihydroimidazo[1,2-a]pyrimidin-5(1H)-one] | 10 to 100 | 88 |
| O=c1cc(N2CCOCC2)nc2n1CC[C@@H](C(F)(F)F)N2CCO [Example 4b, (8S)-9-(2-Hydroxyethyl)-2-(morpholin-4-yl)-8-(trifluoromethyl)-6,7,8,9-tetrahydro-4H-pyrimido[1,2-a]pyrimidin-4-one] | 10 to 100 | 117 |
| CC(C)(O)CN1c2nc(N3CCOCC3)cc(=O)n2C[C@@]1(C)C(F)(F)F [Example 5a, (S)-1-(2-Hydroxy-2-methyl-propyl)-2-methyl-7-(morpholin-4-yl)-2-(trifluoromethyl)-2,3-dihydroimidazo[1,2-a]pyrimidin-5(1H)-one] | 10 to 100 | 72 |
| COC(C)(C)CN1c2nc(N3CCOCC3)cc(=O)n2C[C@@]1(C)C(F)(F)F [Example 6a, (S)-1-(2-Methoxy-2-methyl-propyl)-2-methyl-7-(morpholin-4-yl)-2-(trifluoromethyl)-2,3-dihydroimidazo[1,2-a]pyrimidin-5(1H)-one] | < 10 | – |
| O=c1cc(N2CCOCC2)nc2n1CC[C@@H](C(F)(F)F)N2CCOCC(F)(F)F [Example 6b, (S)-2-(Morpholin-4-yl)-9-[2-(2,2,2-trifluoro-ethoxy)-ethyl]-8-(trifluoromethyl)-6,7,8,9-tetrahydro-4H-pyrimido[1,2-a]pyrimidin-4-one] | 10 to 100 | 107.8 |
| CC(C)OCCN1c2nc(N3CCOCC3)cc(=O)n2CC1(C)C [Example 7a, 1-(2-Isopropoxyethyl)-2,2-dimethyl-7-(morpholin-4-yl)-2,3-dihydroimidazo[1,2-a]pyrimidin-5(1H)-one] | > 100 | – |
| CC(C)OCCN1c2nc(N3CCOCC3)c(F)c(=O)n2CC[C@H]1C(F)(F)F [Example 7b, (8S)-3-Fluoro-9-(2-isopropoxy-ethyl)-2-(morpholin-4-yl)-8-(trifluoromethyl)-6,7,8,9-tetrahydro-4H-pyrimido[1,2-a]pyrimidin-4-one] | < 10 | 117 |
| COCCN1c2nc(N3CCOCC3)cc(=O)n2CC12CCCC2 [Example 8a, 1′-(2-Methoxyethyl)-7′-morpholin-4-ylspiro[cyclopentane-1,2′-imidazo[1,2-a]pyrimidin]-5′-one] | > 100 | – |
| CC(C)(O)CN1c2nc(N3CCOCC3)cc(=O)n2CC[C@H]1C(F)(F)F [Example 8b, (8S)-9-(2-Hydroxy-2-methylpropyl)-2-(morpholin-4-yl)-8-(trifluoromethyl)-6,7,8,9-tetrahydro-4H-pyrimido[1,2-a]pyrimidin-4-one] | < 10 | – |
| CC(C)OCCN1c2nc(N3CCOCC3)cc(=O)n2CC12CCCC2 [Example 9a, 1′-(2-isopropoxyethyl)-7′-morpholin-4-ylspiro[cyclopentane-1,2′-imidazo[1,2-a]pyrimidin]-5′-one] | 10 to 100 | – |
| Cc1c(N2CCOCC2)nc2n(c1=O)CC[C@@H](C(F)(F)F)N2CC(C)(C)O [Example 9b, (S)-9-(2-Hydroxy-2-methyl-propyl)-3-methyl-2-(morpholin-4-yl)-8-trifluoromethyl-6,7,8,9-tetrahydro-4H-pyrimido[1,2-a]pyrimidin-4-one] | > 100 | 170 |
| COC(C)(C)CN1c2nc(N3CCOCC3)cc(=O)n2CC[C@H]1C(F)(F)F [Example 10b, (S)-9-(2-Methoxy-2-methyl-propyl)-2-(morpholin-4-yl)-8-trifluoromethyl-6,7,8,9-tetrahydro-4H-pyrimido[1,2-a]pyrimidin-4-one] | 10 to 100 | 172 |
| CC(C)OCCN1c2nc(N3CCOCC3)cc(=O)n2CC[C@@]1(C)C(F)(F)F [Example 11Ab, (8S)-8-Methyl-2-(morpholin-4-yl)-9-(2-(propan-2-yloxy)ethyl)-8-(trifluoromethyl)-6,7,8,9-tetrahydro-4H-pyrimido[1,2-a]pyrimidin-4-one] | < 10 | – |
| CC(C)OCCN1c2nc(N3CCOCC3)cc(=O)n2CC[C@]1(C)C(F)(F)F [Example 11Bb, (8R)-8-Methyl-2-(morpholin-4-yl)-9-(2-(propan-2-yloxy)ethyl)-8-(trifluoromethyl)-6,7,8,9-tetrahydro-4H-pyrimido[1,2-a]pyrimidin-4-one] | > 100 | – |
| COCCN1c2nc(N3CCOCC3)cc(=O)n2CCC1(C)C [Example 12b, 9-(2-Methoxyethyl)-8,8-dimethyl-2-(morpholin-4-yl)-6,7,8,9-tetrahydro-4H-pyrimido[1,2-a]pyrimidin-4-one] | 10 to 100 | – |
| CC(C)OCCN1c2nc(N3CCOCC3)cc(=O)n2CCC1(C)C [Example 13b, 9-(2-Isopropoxyethyl)-8,8-dimethyl-2-(morpholin-4-yl)-6,7,8,9-tetrahydro-4H-pyrimido[1,2-a]pyrimidin-4-one] | 10 to 100 | – |
| COCCN1CC(C)(C)Cn2c1nc(N1CCOCC1)cc2=O [Example 14b, 9-(2-Methoxyethyl)-7,7-dimethyl-2-(morpholin-4-yl)-6,7,8,9-tetrahydro-4H-pyrimido[1,2-a]pyrimidin-4-one] | > 100 | – |
| CC(C)OCCN1CC(C)(C)Cn2c1nc(N1CCOCC1)cc2=O [Example 15b, 9-(2-Isopropoxyethyl)-7,7-dimethyl-2-(morpholin-4-yl)-6,7,8,9-tetrahydro-4H-pyrimido[1,2-a]pyrimidin-4-one] | > 100 | – |
| CC(C)OCCN1CC2(CC2)Cn2c1nc(N1CCOCC1)cc2=O [Example 16b, 1-(2-Isopropoxyethyl)-8′-(morpholin-4-yl)-1′,2′-dihydro-spiro[cyclopropane-1,3′-pyrimido[1,2-a]pyrimidin]-6′-one] | 10 to 100 | – |
| CS(=O)(=O)CCN1c2nc(N3CCOCC3)cc(=O)n2CC[C@H]1C(F)(F)F [Example 17b, (8S)-9-(2-Methanesulfonyl-ethyl)-2-morpholin-4-yl-8-trifluoromethyl-6,7,8,9-tetrahydro-pyrimido[1,2-a]pyrimidin-4-one] | < 10 | 96 |
